Activity calls are given as the source filed them. The calls are words filed in the database; no cut-off is given here.
How the values were obtained:
[1] = molecular target: T1, Metabotropic glutamate receptor 2 (Homo sapiens, UniProt Q14416); assay: Antagonist activity at recombinant human mGlu2 receptor expressed in hamster AV12 cells co-expressing human EAAT1 assessed as reduction of DCG-4-inhibited forskolin-stimulated cAMP formation after 20 mins by HTRF assay; type: functional, cell-based
[2] = molecular target: T2, Metabotropic glutamate receptor 3 (Homo sapiens, UniProt Q14832); assay: Antagonist activity at recombinant human mGlu3 receptor expressed in hamster AV12 cells assessed as inhibition of DCG-4-inhibited forskolin-stimulated cAMP formation up to 25 uM after 20 mins by HTRF assay relative to control; type: functional, cell-based
Target sequence in this assay (Q14832 23-879 limits assumed): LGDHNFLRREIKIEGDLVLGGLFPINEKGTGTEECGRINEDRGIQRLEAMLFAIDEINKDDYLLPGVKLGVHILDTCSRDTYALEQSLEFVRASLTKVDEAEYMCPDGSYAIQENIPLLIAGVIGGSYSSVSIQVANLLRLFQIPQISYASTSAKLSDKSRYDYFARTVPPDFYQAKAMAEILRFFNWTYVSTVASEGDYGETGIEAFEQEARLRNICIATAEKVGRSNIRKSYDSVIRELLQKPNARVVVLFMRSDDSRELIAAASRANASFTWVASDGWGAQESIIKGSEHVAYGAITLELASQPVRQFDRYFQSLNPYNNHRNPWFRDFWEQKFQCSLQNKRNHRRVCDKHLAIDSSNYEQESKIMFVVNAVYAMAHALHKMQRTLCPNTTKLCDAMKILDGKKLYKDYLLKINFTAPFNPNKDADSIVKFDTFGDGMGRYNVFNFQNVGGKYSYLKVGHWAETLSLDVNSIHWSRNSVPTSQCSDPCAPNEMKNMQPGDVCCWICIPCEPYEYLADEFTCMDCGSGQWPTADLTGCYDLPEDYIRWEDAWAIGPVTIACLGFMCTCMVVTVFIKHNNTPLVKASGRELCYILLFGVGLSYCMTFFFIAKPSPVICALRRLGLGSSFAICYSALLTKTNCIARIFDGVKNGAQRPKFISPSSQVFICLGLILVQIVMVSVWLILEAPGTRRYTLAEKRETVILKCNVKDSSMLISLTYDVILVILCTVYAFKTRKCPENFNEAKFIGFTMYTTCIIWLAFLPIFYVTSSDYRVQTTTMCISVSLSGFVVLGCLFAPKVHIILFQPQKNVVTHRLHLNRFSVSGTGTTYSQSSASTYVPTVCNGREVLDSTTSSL

[3] = molecular target: T1, Metabotropic glutamate receptor 2; assay: Antagonist activity at recombinant human mGlu2 receptor expressed in hamster AV12 cells assessed as inhibition of DCG-4-inhibited forskolin-stimulated cAMP formation up to 25 uM after 20 min by HTRF assay relative to control; type: functional, cell-based
Target sequence in this assay (Q14416 19-872 limits assumed): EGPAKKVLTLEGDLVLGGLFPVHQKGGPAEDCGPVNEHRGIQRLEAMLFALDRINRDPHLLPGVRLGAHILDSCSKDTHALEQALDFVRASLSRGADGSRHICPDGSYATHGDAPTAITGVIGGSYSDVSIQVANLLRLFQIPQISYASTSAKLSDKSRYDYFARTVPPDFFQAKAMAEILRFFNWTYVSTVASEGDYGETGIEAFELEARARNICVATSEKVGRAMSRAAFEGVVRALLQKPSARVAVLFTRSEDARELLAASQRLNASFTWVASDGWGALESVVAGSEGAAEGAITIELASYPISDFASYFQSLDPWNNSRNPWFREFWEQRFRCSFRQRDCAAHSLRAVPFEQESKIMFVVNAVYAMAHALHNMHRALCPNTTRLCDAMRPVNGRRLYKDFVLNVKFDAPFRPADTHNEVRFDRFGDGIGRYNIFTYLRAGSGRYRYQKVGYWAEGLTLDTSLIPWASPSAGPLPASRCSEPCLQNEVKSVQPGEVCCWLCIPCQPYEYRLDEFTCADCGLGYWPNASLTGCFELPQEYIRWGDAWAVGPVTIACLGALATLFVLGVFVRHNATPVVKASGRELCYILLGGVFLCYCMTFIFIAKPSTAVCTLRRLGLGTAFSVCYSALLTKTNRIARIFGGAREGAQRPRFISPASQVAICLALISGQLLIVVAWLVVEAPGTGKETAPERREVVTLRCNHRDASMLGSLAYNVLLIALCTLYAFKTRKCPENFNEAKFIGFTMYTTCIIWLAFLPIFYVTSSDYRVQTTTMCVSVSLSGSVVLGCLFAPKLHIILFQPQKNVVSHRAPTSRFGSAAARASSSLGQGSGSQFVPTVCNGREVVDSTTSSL

[4] = molecular target: T2, Metabotropic glutamate receptor 3; assay: Antagonist activity at recombinant human mGlu3 receptor expressed in hamster AV12 cells co-expressing human EAAT1 assessed as reduction of DCG-4-inhibited forskolin-stimulated cAMP formation after 20 mins by HTRF assay; type: functional, cell-based
[5] = Antidepressant activity in ip dosed NIH Swiss Webster mouse assessed as reduction in immobility time administered 30 mins prior to evaluation measured on the last 4 mins of the 6 mins observation time by forced swim test realtive to control; type: functional, organism-based
[6] = Antidepressant activity in ip dosed NIH Swiss Webster mouse assessed as reduction in immobility time administered 30 mins prior to evaluation measured on the last 4 mins of the 6 mins observation time by forced swim test; type: functional, organism-based
[7] = molecular target: T1, Metabotropic glutamate receptor 2; assay: Displacement of [3H]-LY459477 from human mGlu2 receptor expressed in hamster AV12 cell membranes co-expressing human EAAT1 after 90 mins by liquid scintillation counting method
Target sequence in this assay (Q14416 whole entry): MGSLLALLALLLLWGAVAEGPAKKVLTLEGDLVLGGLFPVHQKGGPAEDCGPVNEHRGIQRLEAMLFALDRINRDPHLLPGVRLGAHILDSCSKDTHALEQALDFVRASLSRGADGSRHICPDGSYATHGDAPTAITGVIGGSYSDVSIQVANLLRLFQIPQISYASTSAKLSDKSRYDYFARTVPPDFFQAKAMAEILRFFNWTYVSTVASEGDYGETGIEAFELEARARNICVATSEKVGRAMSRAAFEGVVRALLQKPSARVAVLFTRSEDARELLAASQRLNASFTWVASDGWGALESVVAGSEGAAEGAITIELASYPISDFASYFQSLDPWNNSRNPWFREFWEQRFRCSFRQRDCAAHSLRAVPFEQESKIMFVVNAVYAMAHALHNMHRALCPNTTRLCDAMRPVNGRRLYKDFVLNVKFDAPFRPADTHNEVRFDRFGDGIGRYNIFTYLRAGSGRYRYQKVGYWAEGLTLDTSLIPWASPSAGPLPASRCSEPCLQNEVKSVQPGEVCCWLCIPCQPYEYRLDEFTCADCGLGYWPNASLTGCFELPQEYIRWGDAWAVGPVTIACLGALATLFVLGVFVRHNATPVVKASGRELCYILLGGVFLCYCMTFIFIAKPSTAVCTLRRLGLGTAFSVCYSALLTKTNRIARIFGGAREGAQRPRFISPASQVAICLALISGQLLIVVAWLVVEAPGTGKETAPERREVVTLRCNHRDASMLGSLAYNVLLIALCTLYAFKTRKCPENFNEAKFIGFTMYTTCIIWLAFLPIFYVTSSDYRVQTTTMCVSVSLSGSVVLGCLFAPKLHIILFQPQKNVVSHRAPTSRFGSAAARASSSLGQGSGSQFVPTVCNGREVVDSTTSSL

[8] = molecular target: T2, Metabotropic glutamate receptor 3; assay: Displacement of [3H]-LY459477 from human mGlu3 receptor expressed in hamster AV12 cell membranes co-expressing human EAAT1 after 90 mins by liquid scintillation counting method
Target sequence in this assay (Q14832 whole entry): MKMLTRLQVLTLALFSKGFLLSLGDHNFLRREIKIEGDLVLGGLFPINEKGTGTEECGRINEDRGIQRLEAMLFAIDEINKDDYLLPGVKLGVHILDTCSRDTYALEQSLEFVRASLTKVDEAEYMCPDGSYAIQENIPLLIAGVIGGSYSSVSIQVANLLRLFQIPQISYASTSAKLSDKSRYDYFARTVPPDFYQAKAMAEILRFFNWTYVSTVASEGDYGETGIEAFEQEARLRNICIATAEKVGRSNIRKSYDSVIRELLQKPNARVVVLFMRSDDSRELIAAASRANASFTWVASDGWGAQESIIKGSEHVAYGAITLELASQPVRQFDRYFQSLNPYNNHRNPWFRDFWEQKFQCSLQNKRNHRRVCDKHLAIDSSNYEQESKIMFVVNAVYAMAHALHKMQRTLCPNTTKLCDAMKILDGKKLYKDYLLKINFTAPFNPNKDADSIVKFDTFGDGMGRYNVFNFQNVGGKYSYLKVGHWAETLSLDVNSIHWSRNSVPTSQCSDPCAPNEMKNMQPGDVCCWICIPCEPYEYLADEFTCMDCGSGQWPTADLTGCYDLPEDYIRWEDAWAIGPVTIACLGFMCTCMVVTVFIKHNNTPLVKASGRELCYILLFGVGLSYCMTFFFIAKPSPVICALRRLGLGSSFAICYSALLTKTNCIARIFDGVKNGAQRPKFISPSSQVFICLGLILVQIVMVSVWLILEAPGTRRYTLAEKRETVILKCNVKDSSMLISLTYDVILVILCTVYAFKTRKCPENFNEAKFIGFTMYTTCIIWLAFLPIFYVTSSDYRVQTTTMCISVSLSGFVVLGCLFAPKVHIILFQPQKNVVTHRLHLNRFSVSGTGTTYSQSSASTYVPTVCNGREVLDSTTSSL

With `N[C@]1(C(=O)O)[C@@H]2[C@@H](C(=O)O)[C@@H]2[C@@H](O)[C@H]1OCc1ccc(Cl)cc1` the IC50 [1] was 0.21 µM, the Imax [1] was over 94% and the inhibition [2] was “Active”. For the same compound, the inhibition [3] was “Active”, the IC50 [4] was 0.145 µM and the Imax [4] was over 94%.

Work on `N[C@@]1(C(=O)O)[C@H](Cc2ccc(F)c(Cl)c2)C[C@H]2[C@H](C(=O)O)[C@H]21` (racemic) yielded an IC50 [4] of 0.0761 µM.

In the case of `Cc1cc(CO[C@@H]2[C@H](O)[C@H]3[C@H](C(=O)O)[C@H]3[C@]2(N)C(=O)O)ccc1F`, the inhibition [2] is reported as “Active”, the IC50 [4] is reported as 0.085 µM and the Imax [4] is reported as over 94%.

For `N[C@]1(C(=O)O)[C@@H]2[C@@H](C(=O)O)[C@@H]2[C@@H](O)[C@H]1OCc1cc(Cl)ccc1Cl`, the inhibition [2] was “Active”, the IC50 [4] was 0.185 µM and the Imax [4] was over 94%.

In the case of `N[C@]1(C(=O)O)[C@@H]2[C@@H](C(=O)O)[C@@H]2[C@@H](O)[C@H]1OCc1ccc(Cl)c(F)c1`, the inhibition [2] is reported as “Active”, the IC50 [4] is reported as 0.127 µM and the Imax [4] is reported as over 94%.

With `N[C@]1(C(=O)O)[C@@H]2[C@@H](C(=O)O)[C@@H]2[C@@H](O)[C@H]1OCc1cccc(Cl)c1` the IC50 [1] was 0.28 µM, the Imax [1] was over 94% and the inhibition [2] was “Active”. The inhibition [3] was “Active”, the IC50 [4] was 0.178 µM and the Imax [4] was over 94%.

In the case of `N[C@]1(C(=O)O)[C@@H]2[C@@H](C(=O)O)[C@@H]2[C@H](F)[C@H]1OCc1ccc(Cl)c(Cl)c1`, the inhibition [2] is reported as “Active”, the IC50 [4] is reported as 0.071 µM and the Imax [4] is reported as over 94%.

`COC(=O)N[C@H]1[C@H]2[C@H](C(=O)O)[C@H]2[C@](N)(C(=O)O)[C@@H]1OCc1ccc(Cl)c(Cl)c1` showed an IC50 [1] of 0.0188 µM, an Imax [1] of over 94% and an Emax [5] of 46%. For the same compound, the inhibition [2] was “Active”, the inhibition [3] was “Active” and the IC50 [4] was 0.0205 µM. It also gave an Imax [4] of over 94%, an ED60 [6] of 7.95 mg/kg and an MED [6] of 10 mg/kg.

With `N[C@]1(C(=O)O)[C@@H]2[C@@H](C(=O)O)[C@@H]2[C@@H](O)[C@H]1OCc1ccccc1` the inhibition [2] was “Active”, the IC50 [4] was 0.239 µM and the Imax [4] was over 94%.

In the case of `N[C@@]1(C(=O)O)C[C@H](O)[C@H]2[C@H](C(=O)O)[C@H]21`, the Ki [7] is reported as 0.23 µM.

For `N[C@]1(C(=O)O)[C@@H]2[C@@H](C(=O)O)[C@@H]2[C@H](Sc2nc[nH]n2)[C@H]1OCc1ccc(Cl)c(Cl)c1`, the IC50 [1] was 0.0127 µM, the Imax [1] was over 94% and the Ki [8] was 0.0027 µM. For the same compound, the Emax [5] was 62%, the inhibition [2] was “Active” and the inhibition [3] was “Active”. For the same compound, the IC50 [4] was 0.0235 µM, the Imax [4] was over 94% and the Ki [7] was 0.00743 µM. It also gave an ED60 [6] of 2.08 mg/kg and an MED [6] of 3 mg/kg.

In the case of `[N-]=[N+]=N[C@H]1[C@H]2[C@H](C(=O)O)[C@H]2[C@](N)(C(=O)O)[C@@H]1OCc1ccc(Cl)c(Cl)c1`, the IC50 [1] is reported as 0.0345 µM, the Imax [1] is reported as over 94% and the inhibition [2] is reported as “Active”. For the same compound, the inhibition [3] was “Active”, the IC50 [4] was 0.0541 µM and the Imax [4] was over 94%.

Compound `Cn1ncnc1S[C@H]1[C@H]2[C@H](C(=O)O)[C@H]2[C@](N)(C(=O)O)[C@@H]1OCc1ccc(Cl)c(Cl)c1` has an IC50 [1] of 0.0199 µM, an Imax [1] of over 94% and an Emax [5] of 47%. The inhibition [2] was “Active”, the inhibition [3] was “Active” and the IC50 [4] was 0.0296 µM. For the same compound, the Imax [4] was over 94%, the ED60 [6] was 7.3 mg/kg and the MED [6] was 10 mg/kg.

For `N[C@]1(C(=O)O)[C@@H]2[C@@H](C(=O)O)[C@@H]2[C@H](Sc2ncc[nH]2)[C@H]1OCc1ccc(Cl)c(Cl)c1`, the Emax [5] was 41%, the inhibition [2] was “Active” and the IC50 [4] was 0.0385 µM. It also gave an Imax [4] of over 94%, an ED60 [6] of 9.1 mg/kg and an MED [6] of 10 mg/kg.

With `N[C@]1(C(=O)O)[C@@H]2[C@@H](C(=O)O)[C@@H]2[C@@H](O)[C@H]1OCc1ccc(Cl)c(Cl)c1` the IC50 [1] was 0.169 µM, the Imax [1] was over 94% and the inhibition [2] was “Active”. The inhibition [3] was “Active”, the IC50 [4] was 0.153 µM and the Imax [4] was over 94%. The Ki [7] was 0.076 µM.

`N[C@@]1(C(=O)O)C[C@@H](O)[C@H]2[C@H](C(=O)O)[C@H]21` gave a Ki [7] of 0.166 µM.

In the case of `N[C@]1(C(=O)O)[C@@H]2[C@@H](C(=O)O)[C@@H]2[C@@H](O)[C@H]1OCc1cccc(Cl)c1Cl`, the inhibition [2] is reported as “Active”, the IC50 [4] is reported as 0.0832 µM and the Imax [4] is reported as over 94%.

In the case of `N[C@H]1[C@H]2[C@H](C(=O)O)[C@H]2[C@](N)(C(=O)O)[C@@H]1OCc1ccc(Cl)c(Cl)c1`, the IC50 [1] is reported as 1.13 µM, the Imax [1] is reported as over 94% and the inhibition [2] is reported as “Active”. For the same compound, the inhibition [3] was “Active”, the IC50 [4] was 1.07 µM and the Imax [4] was over 94%.

`CC(=O)N[C@H]1[C@H]2[C@H](C(=O)O)[C@H]2[C@](N)(C(=O)O)[C@@H]1OCc1ccc(Cl)c(Cl)c1` showed an IC50 [1] of 0.0261 µM, an Imax [1] of over 94% and an Emax [5] of 41%. The inhibition [2] was “Active”, the inhibition [3] was “Active” and the IC50 [4] was 0.0143 µM. It also gave an Imax [4] of over 94%, an ED60 [6] of 9.1 mg/kg and an MED [6] of 30 mg/kg.
